Converted amounts (≈) assume the structure as drawn.
Tests used:
phospho-AMPK = phospho-AMPK / p-ACC immunoblotting in Beas2B cells (in vitro studies); format: cell-based, Human
Description: FIG. 3. (A) Beas2b cells were cultured in DMEM 2% media with glucose for 24 h before switching to glucose-free media. Cells were then exposed to either DMSO or Compound 1 (2 μM) in a time course before being collected for immunoblotting. (B) Beas2B cells were exposed to Compound 1 for 18 h at various doses before being collected for immunoblotting. (C) Beas2b cells were cultured in DMEM 2% media with glucose for 24 h before switching to glucose-free media. Cells were then exposed to AICAR at various doses with or without Compound 1 co-treatment. After 18 h, cells were collected before being assayed by immunoblotting.
FIG. 4. (A) Beas2b cells were cultured in DMEM 2% media with glucose for 24 h before switching to glucose-free media. Cells were then exposed to Compound 12 in a dose dependent manner for 18 h before being collected for immunoblotting. (B) Beas2b cells were cultured in DMEM 2% media with glucose for 24 h before Compound 12 treatment in a dose dependent manner. After 18 h, cells were then collected for immunoblotting. (C) Beas2b cells were cultured in DMEM 2% media with glucose for 24 h before switching to glucose-free media. Cells were then exposed to Compound 12 for 18 h before being collected for mRNA analysis. (D) 50K PBMC cells were cultured in 96 well plates before being exposed to Compound 12 for 4 h. Cells were then treated with LPS (10 ng/ml) for additional 2 h. Media were then collected and IL-1b concentration was determined by ELISA.
FIG. 9. (A) Beas2b cells were cultured in DMEM 2% media with glucose for 24 h before switching to glucose-free media. Cells were then exposed to Compound 23 or metformin in a dose dependent manner for 18 h before being collected for immunoblotting. (B) Beas2b cells were cultured in DMEM 2% media with glucose for 24 h before switching to glucose-free media and treated with Compound 12 or Compound 23 in a dose dependent manner. After 6 h, cells were then collected for immunoblotting. (C) Beas2b cells were cultured in DMEM 2% media with glucose for 24 h before switching to glucose-free media and treated with Compound 12 or Compound 23 in a dose dependent manner. After 18 h, cells were then collected for immunoblotting. (D) Beas2b cells were transfected with AMPK phospho mimic T172D or phospho dead T172A mutant for 24 h. Cells were then switched to glucose-free media and exposed to Compound 23 in a dose or time dependent manner before being collected for immunoblotting. (E) Beas2b cells were transfected with control siRNA or Fbxo48 siRNA for 48 h before switching to glucose-free media. Cells were then exposed to Compound 23 in a dose dependent manner before being collected for immunoblotting. (F) Compound 23 chemical structure.
Compound 1 was studied in in vitro assays using Beas2B cells. […]
Compound 23 was tested in in vitro studies using Beas2B cells and compared with metformin.

Diet-induced obese mice = Diet-induced obese mice study, 14 days dosing; format: in vivo; conditions: once daily for 14 days; BC1618 8 or 40 mg/kg/d
Description: FIG. 12. Diet-induced obese mice were fed a high-fat diet for 19 weeks and then injected with vehicle or drug once daily for 14 days. Daily body weights (in grams) of the mice are shown.
Diet-induced obese mice arrived from Jackson Labs and recovered two weeks in satellite housing before study. Mice were 25 weeks old and fed a high-fat diet for 19 weeks at the time of study. Body weight, fat and lean mass were measured and mice were grouped in order to match body weights at ˜46.5 g average per group prior to study. Following the acute dosing trial, mice were injected with vehicle or drug 1× daily between noon and 2 pm for 14 days (BC1618-L (low dose)=8 mg/kg/d, BC1618-H (high dose)=40 mg/kg/d). Body weight was recorded daily (FIGS. 12-15). FIG. 12 and FIG. 13 show body weight in grams and FIG. 14 and FIG. 15 show body weight as a percentage of body weight on day 0 (DO).
FIGS. 16-19 show the change (A) in body weight (BW) from day 0 to day 14 expressed as change in grams (FIG. 16 and FIG. 17) or as percent change from day 0 (FIG. 18 and FIG. 19).
Body composition was measured at DO in the body weight matched animals and again at day 14 (D14). Data in FIGS. 20-23 represent the change in fat mass from DO to D14 expressed as grams (FIG. 20 and FIG. 21) or as percent change (FIG. 22 and FIG. 23).
Data in FIGS. 24-27 represent the change in lean mass from DO to D14 expressed as grams (FIG. 24 and FIG. 25) and as percent change (FIG. 26 and FIG. 27). Overall there appears to be a modest effect of vehicle and drug to reduce lean mass over 14 days, but no differences between groups. Changes in BW over 14 days therefore reflect changes in fat mass and not lean mass.

[1] = tested on: High-fat diet fed C57BL6J mice; assay: Acute oral dosing study in high-fat diet fed mice; format: in vivo
pAMPK = pAMPK immunoblotting in Beas2B cells (Table 1); format: cell-based; conditions: Homo sapiens, BEAS-2B, DMEM media without glucose, compounds 18 h
Description: Additional compounds in Table 1 were or can be prepared according to the above-described Examples. Human bronchial epithelial cells (Beas2B) were seeded in 6-well plates for 18 h. Cells were then exposed to DMEM media without glucose and compounds at various concentrations for an additional 18 h before being collected for immunoblotting.

IC50 (pAMPK) | SMILES | other results
– | NC(=O)c1ncn([C@@H]2O[C@H](CO)[C@@H](O)[C@H]2O)c1N [AICAR, reference compound] | concentration at which phospho-AMPK levels increased (phospho-AMPK; Beas2b, glucose-free media, 18 h, dose dependent): ~0.05 mM; body weight loss (daily body weight) (Diet-induced obese mice): effect of AICAR and BC1618 on body weight loss; change in body weight from day 0 to day 14 (Diet-induced obese mice): an effect due to AICAR or BC1618; change in fat mass from D0 to D14 (Diet-induced obese mice): apparent additive effect; glucose tolerance (intraperitoneal glucose tolerance test) ([1]; 1 g/kg body weight glucose, data not shown): no difference in glucose tolerance; body weight at the time of study ([1]; two oral doses (AICAR 200 mg/kg, BC1618 20 mg/kg)): no differences in body weight; reduction of fasting plasma glucose compared to vehicle ([1]; two oral doses (AICAR 200 mg/kg, BC1618 20 mg/kg), 2 h after second dose, P=0.08): 10%
1 to 10 µg/mL (≈ 1.62 to 16.2 µM) | OC(COc1ccc(OCC(O)CN(Cc2ccccc2)Cc2ccccc2)cc1)CN(Cc1ccccc1)Cc1ccccc1 (centres unmarked) [Compound 1] | concentration leading to a drastic increase in phospho-AMPK levels (phospho-AMPK; Beas2B cells, 18 h, various doses): 2 µM; phospho-AMPK levels compared to vehicle control (phospho-AMPK; Beas2b, glucose-free media, 2 μM, time course, within 2 h): drastically increased; phospho-AMPK and downstream p-ACC levels versus AICAR (phospho-AMPK; Compound 1 alone at 4 μM, AICAR at 0.25 mM): well exceeding AICAR treatment at 0.25 mM; effect of co-treatment with AICAR on phospho-AMPK (phospho-AMPK; Compound 1 at 4 μM with AICAR at various doses, 18 h): completely saturated AICAR effects
> 10 µg/mL | COCCN(Cc1ccc(OCC(O)CN(C)Cc2ccccc2)cc1)C(C)C (centres unmarked) [Compound 2] | –
> 10 µg/mL | CN(Cc1ccccc1)CC(O)COc1ccc(CNC2CC2)cc1 (centres unmarked) [Compound 3] | –
> 10 µg/mL | Cc1ccccc1CNCc1ccc(OCC(O)CN(C)Cc2ccccc2)cc1 (centres unmarked) [Compound 4] | –
1 to 10 µg/mL (≈ 2.77 to 27.7 µM) | Cc1ccc(OCC(O)CN(Cc2ccccc2)Cc2ccccc2)cc1 (centres unmarked) [Compound 5] | –
1 to 10 µg/mL (≈ 2.65 to 26.5 µM) | COc1ccc(OCC(O)CN(Cc2ccccc2)Cc2ccccc2)cc1 (centres unmarked) [Compound 6] | –
1 to 10 µg/mL (≈ 2.52 to 25.2 µM) | OC(COc1ccc2ccccc2c1)CN(Cc1ccccc1)Cc1ccccc1 (centres unmarked) [Compound 7] | –
> 10 µg/mL | OC(CNCc1ccccc1)COc1ccc(OCC(O)CNCc2ccccc2)cc1 (centres unmarked) [Compound 8] | –
1 to 10 µg/mL (≈ 2.77 to 27.7 µM) | Cc1ccccc1OCC(O)CN(Cc1ccccc1)Cc1ccccc1 (centres unmarked) [Compound 9] | –
> 10 µg/mL | CC1CN(Cc2ccc(OCC(O)CN(C)Cc3ccccc3)cc2)C1 (centres unmarked) [Compound 10] | –
1 to 10 µg/mL (≈ 2.85 to 28.5 µM) | OC(CNC(c1ccccc1)c1ccccc1)COc1ccc(F)cc1 (centres unmarked) [Compound 11] | –
1 to 10 µg/mL (≈ 3 to 30 µM) | OC(CNC(c1ccccc1)c1ccccc1)COc1ccccc1 (centres unmarked) [Compound 13] | –
1 to 10 µg/mL (≈ 2.88 to 28.8 µM) | OC(CNCC(c1ccccc1)c1ccccc1)COc1ccccc1 (centres unmarked) [Compound 14] | –
> 10 µg/mL | OC(CNC1c2ccccc2Oc2ccccc21)COc1ccccc1 (centres unmarked) [Compound 15] | –
1 to 10 µg/mL (≈ 2.88 to 28.8 µM) | OC(COc1ccccc1)CN(Cc1ccccc1)Cc1ccccc1 (centres unmarked) [Compound 16] | –
1 to 10 µg/mL (≈ 2.65 to 26.5 µM) | COc1ccc(OCC(O)CNCC(c2ccccc2)c2ccccc2)cc1 (centres unmarked) [Compound 17] | –
1 to 10 µg/mL (≈ 2.41 to 24.1 µM) | OC(CNC(c1ccccc1)c1ccccc1)COc1ccc(C2CCCCC2)cc1 (centres unmarked) [Compound 18] | –
1 to 10 µg/mL (≈ 2.33 to 23.3 µM) | OC(COc1ccc(C2CCCCC2)cc1)CN(Cc1ccccc1)Cc1ccccc1 (centres unmarked) [Compound 19] | –
> 10 µg/mL | OC(CNCC(c1ccccc1)c1ccccc1)COc1ccc(C2CCCCC2)cc1 (centres unmarked) [Compound 20] | –
> 10 µg/mL | O=C(c1ccccc1)c1ccc(OCC(O)CN(Cc2ccccc2)Cc2ccccc2)cc1 (centres unmarked) [Compound 21] | –
> 10 µg/mL | OC(COc1ccc(-c2ccccn2)cc1)CN(Cc1ccccc1)Cc1ccccc1 (centres unmarked) [Compound 22] | –
1 to 10 µg/mL (≈ 2.72 to 27.2 µM) | OC(CN(Cc1ccccc1)Cc1ccccc1)c1ccc2ccccc2c1 (centres unmarked) [Compound 24] | –
> 10 µg/mL | OC(CCc1ccccc1)CN(Cc1ccccc1)Cc1ccccc1 (centres unmarked) [Compound 25] | –
> 10 µg/mL | OC(COc1ccc(C(F)(F)F)cc1)CN1CCc2ccccc2C1 (centres unmarked) [Compound 26] | –
> 10 µg/mL | OC(CNc1ccc(C(F)(F)F)cc1)CNc1ccc(C(F)(F)F)cc1 [Compound 27] | –
> 10 µg/mL | OC(CNc1ccc(F)cc1)COc1ccc(F)cc1 (centres unmarked) [Compound 28] | –
– | CN(C)C(=N)N=C(N)N [metformin, reference compound] | concentration range increasing pAMPK phosphorylation and downstream substrate ACC phosphorylation (phospho-AMPK; Beas2b, glucose-free media, 18 h): millimolar
